Assay results published in US7632843B2, “Treatment of psychostimulant addiction” (priority 2002, dated 2009).
Like-named read-outs stand apart in the source and are kept apart here.

Key:
mice [1] = assay: Inhibition of increased locomotor activity produced by cocaine injection; assay type: in vivo
Method: In the experiments in eight mice, intraperitoneal injection of LEK-8829 (in the form of bimaleate salt) inhibited the increased locomotor activity produced by intraperitoneal cocaine injection of 20 mg/kg.

mice [2] = assay: Inhibition of spontaneous locomotor activity; assay type: in vivo; details: Mus musculus, ip, LEK-8829 bimaleate i.p.
Rhesus monkeys [3] = assay: Drug discrimination study (cocaine 0.4 mg/kg vs physiological saline) in Rhesus monkeys; assay type: in vivo; details: four Rhesus monkeys; doses 0.032 to 0.32 mg/kg; trained on cocaine 0.4 mg/kg vs saline
Description: (§1) According to the data from literature, it is well known that rodents and primates are capable to discriminate most psychostimulants abused by humans. Therefore, a model of the specific drug discrimination in experimental animals is a suitable method for the assessment of new active substances in case of the abuse of psychostimulants.

Rhesus monkeys [4] = assay: Cocaine self-administration versus food intake in Rhesus monkeys; assay type: in vivo
Method: The effect of LEK-8829 (in the form of bimaleate salt) at doses of 0.032 to 0.32 mg/kg intramuscularly on cocaine self-administration in comparison with the effect on food intake (specificity of the effect on feelings of pleasure induced by cocaine, in comparison with non-specific sedative effect) was also tested in four Rhesus monkeys.

D2 receptors = details: previous studies (Zivin et al 1996, 1998; Sprah et al 1999); cited from earlier work
D1 receptors = D1 receptors (Rattus norvegicus, UniProt P18901); details: previous studies (Zivin et al 1996, 1998; Sprah et al 1999); cited from earlier work
male Wistar rats = assay: Craving model: within session extinction and reinstatement paradigm in rats self-administering cocaine; assay type: in vivo, Rattus norvegicus
Method: The study was performed in male Wistar rats (Rattus norvegicus) (the number is given above the columns in the figures) each weighing 180 to 210 g at the beginning of the experiment. The animals used in this experiment were maintained on a 12-hour dark-light cycle under controlled conditions at temperature 22 to 24° C., individually housed in standard cages with free excess to food and water.
In the tests the following active substances were used: • Cocaine hydrochloride • Bromocriptine mesylate • LEK-8829 (9,10-didehydro-N-methyl-N-(2-propynyl)-6-methyl-8β-aminometylergoline bimaleate) Operant Cage for Self-Injecting
The rats were trained and tested in standard operant test chambers (Coulbourn Instruments, Allentown, Pa., USA). Test chambers were built in a modular form and placed in sound-attenuated cubicles. Each was equipped with a ventilating fan that also served as sound source to mask external sound. Chambers were equipped with bulbs emitting white lights. Each chamber contained two nose-poke operanda mounted in 2 cm from the floor and 10 cm apart on the same wall. […] The cocaine solution was administered via the catheter. The latter connected the rat to a syringe ([…] (RAZEL, model A, 10 rpm), installed outside the cage. Time schedule of the experiments and data acquisition were controlled by a computer operated by a software package (Graphic State Notation 2 2.002-00; Coulbourn Instruments, Allentown, Pa., USA).
Each rat was anesthetized with the anaesthetic mixture (ketamine 60 mg/kg and xylazine 8 mg/kg) and implanted with an indwelling jugular catheter. […]
The rats were trained in self-injection of cocaine in daily, 2-hour self-administration sessions during their light cycle, every day except on Saturdays and Sundays. […] Each activation of the active opening was followed by a 30-second period of inactivation (time-out period when the light in the cage was switched off and activation of the active opening was only recorded but without any consequences). […]

rats [5] = assay: Drug discrimination study (cocaine 10 mg/kg) in rats; assay type: in vivo
Description: as §1

rats [6] = assay: Cocaine self-administration model in rats, saccharin as comparative stimulant; assay type: in vivo; details: for ED50: Rattus norvegicus, rats
Method: The action of the active substance LEK-8829 (in the form of bimaleate salt) at doses ranging from 0.25 to 2.5 mg/kg on sensations of pleasure induced by cocaine self-administration was assessed as the effect on the rate of cocaine self-administration in the experiments in five rats. For determination of the specificity of the effect on cocaine, a solution of saccharin was used as a comparative stimulant. […] In the range of medium doses, LEK-8829 caused an increase in overall input of cocaine self-administration in three animals.

Sequence of D1 receptors (P18901 whole entry): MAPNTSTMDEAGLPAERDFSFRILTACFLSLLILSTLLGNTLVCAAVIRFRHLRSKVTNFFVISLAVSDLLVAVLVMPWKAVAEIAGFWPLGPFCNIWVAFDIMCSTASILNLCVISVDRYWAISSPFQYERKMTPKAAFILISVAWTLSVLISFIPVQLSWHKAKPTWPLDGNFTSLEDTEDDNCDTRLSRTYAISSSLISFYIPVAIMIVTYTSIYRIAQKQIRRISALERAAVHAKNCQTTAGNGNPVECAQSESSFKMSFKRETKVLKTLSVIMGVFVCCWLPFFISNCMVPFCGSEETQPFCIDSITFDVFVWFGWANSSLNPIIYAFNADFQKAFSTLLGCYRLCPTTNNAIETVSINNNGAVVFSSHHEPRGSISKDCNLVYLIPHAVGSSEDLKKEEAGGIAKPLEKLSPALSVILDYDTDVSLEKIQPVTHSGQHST

Row | SMILES | ID50, inhibition of increased locomotor activity produced by cocaine (mice [1]; eight mice, LEK-8829 bimaleate i.p., cocaine 20 mg/kg i.p.) | ratio of ED50/ID50 (spontaneous vs cocaine-increased locomotor activity) (mice [1]; mice, selectivity of the effect against cocaine) | ED50 (mice [2]) | discriminative stimulating effect of plain LEK-8829 in the sense of cocaine effect (Rhesus monkeys [3]) | effect on the curve dose/input of cocaine at the largest dose (Rhesus monkeys [4]; Rhesus monkeys, 0.32 mg/kg i.m.) | effect on the curve dose/input of cocaine at small and medium doses (Rhesus monkeys [4]; Rhesus monkeys, 0.032 and 0.1 mg/kg i.m.) | effect on food intake (Rhesus monkeys [4]; Rhesus monkeys, 0.032 to 0.32 mg/kg i.m.) | effect on cocaine self-administration (Rhesus monkeys [4]; four Rhesus monkeys, 0.032 to 0.32 mg/kg intramuscularly, dose-dependent) | effect on D2 receptors (D2 receptors) | effect on D1 receptors (D1 receptors) | effect on cocaine-induced self-injecting (activations of the active opening, last half-hour) (male Wistar rats; LEK-8829 i.v. 0.25 and 0.5 mg/kg, 30 minutes before cocaine 2 mg/kg i.v., p<0.05 vs SAL+COC) | effect on relapse triggered by cocaine (activations of the active opening, last hour) (male Wistar rats; i.p. 0.5 to 5 mg/kg, 30 minutes before cocaine 2 mg/kg i.v., p<0.05 vs SAL+COC) | partial antagonism of cocaine effect (rats [5]; rats, dose 2.5 mg/kg) | replacement of the discriminative stimulating effect of cocaine (rats [5]; six rats, doses 0.25 to 2.5 mg/kg) | inhibition of the discriminative stimulating effect of cocaine (rats [5]; six rats, doses 0.5 to 5 mg/kg) | ED50 (rats [6]; non-specific effect, read-out: ED50, blocking effect on the input of saccharin) | ED50 (rats [6]; read-out: ED50, blocking effect on cocaine self-administration) | effect on the dose/response curve of cocaine self-administration (rats [6]; five rats, dose range printed 0.2.5 to 1.55 mg/kg, four of five animals) | appetitive behaviour induced by the substance itself (male Wistar rats; bromocriptine 2 mg/kg i.v. before the cocaine injection)
1 | C#CCN(C)C[C@@H]1C=C2c3cccc4[nH]cc(c34)C[C@H]2N(C)C1 [LEK-8829, 9,10-didehydro-N-methyl-N-(2-propynyl)-6-methyl-8β-aminomethylergoline] | 1.2 mg/kg | 1.8 | 2.1 mg/kg | did not recognize the discriminative stimulating effect | blocked the effect of cocaine along the entire (ascending and descending) part of the curve | decreased the ascending part of the curve | only a minor inhibiting effect on food intake | inhibited cocaine self-administration | antagonistic effects on D2 receptors | agonist effects on D1 receptors | statistically significantly reduced cocaine-induced self-injecting | statistically significantly reduced a relapse triggered by cocaine | 56% | did not replace the discriminative stimulating effect of cocaine | partly inhibited the discriminative stimulating effect of cocaine | 2.16 mg/kg | 0.17 mg/kg | produced a right shift of the curve in the ratio dose/response to cocaine | 
2 | CC(C)C[C@H]1C(=O)N2CCC[C@H]2[C@]2(O)O[C@](NC(=O)[C@@H]3C=C4c5cccc6[nH]c(Br)c(c56)C[C@H]4N(C)C3)(C(C)C)C(=O)N12 [Bromocriptine, reference compound] |  |  |  |  |  |  |  |  |  |  |  |  |  |  |  |  |  |  | induced the appetitive behaviour
